Measured values: ChEMBL document CHEMBL1795228, “Air to lung partition coefficients for volatile organic compounds and blood to lung partition coefficients for volatile organic compounds and drugs” (Eur J Med Chem, 2008)

Key:
[1] = In-vivo plasma to lung partition coefficients of the compound, logP(lung) in rat; type: ADME, cell-free
[2] = In-vitro air to blood partition coefficients of the compound, logK(blood) (human/rat); details: octanol/water
[3] = In-vitro blood to lung partition coefficients of the compound, logP(lung) (human/rat)
[4] = In-vitro air to lung partition coefficients of the compound, logK(lung) (human/rat); details: octanol/water

Row | SMILES | logP(lung) [1] | logK(blood) [2] | logP(lung) [3] | logK(lung) [4]
1 | O=C(O)c1ccc(-c2ccccc2)cc1 | -0.55 | – | – | –
2 | C=C | – | -0.53 | 0.28 | -0.25
3 | FC(F)OC(F)(F)C(F)Cl (configuration not stated) | – | 0.35 | 0.21 | 0.56
4 | FC(F)(F)CCl | – | 0.14 | 0.2 | 0.34
5 | CCC(C)(C)C | – | -0.59 | 0.37 | -0.22
6 | FC(F)(F)c1ccc(Cl)cc1 | – | 1.43 | 0.2 | 1.63
7 | CCC1(C)C(=O)NC(=O)NC1=O | -0.21 | – | – | –
8 | CCCC1(CC)C(=O)NC(=O)NC1=O | 0.16 | – | – | –
9 | CCCCCCC1(CC)C(=O)NC(=O)NC1=O | 0.08 | – | – | –
10 | CCCCCCCC1(CC)C(=O)NC(=O)NC1=O | 0.12 | – | – | –
11 | CCCCCCCCC1(CC)C(=O)NC(=O)NC1=O | 0.49 | – | – | –
12 | Nc1cc(Cl)c(S(N)(=O)=O)cc1-c1nnn[nH]1 | 0.6 | – | – | –
13 | CCCC(C)C | – | -0.39 | 0.29 | -0.1
14 | CCC(C)CC | – | -0.37 | 0.32 | -0.05
15 | CCCCCC1(CC)C(=O)NC(=O)NC1=O | 0.22 | – | – | –
16 | CC(C)=CCN1CC[C@]2(C)c3cc(O)ccc3C[C@H]1[C@H]2C [(+)-PENTAZOCINE] | 1.43 | – | – | –
17 | CC(C)=O [ACETONE] | – | 2.36 | -0.16 | 2.2
18 | CCC1(CC)C(=O)NC(=O)NC1=O [BARBITAL] | 0 | – | – | –
19 | c1ccccc1 [BENZENE] | – | 1.05 | – | 1.08
20 | CC(C)NCC(O)COc1ccc(CCOCC2CC2)cc1 (configuration not stated) [BETAXOLOL] | 2.29 | – | – | –
21 | OC(CCN1CCCCC1)(c1ccccc1)C1CC2C=CC1C2 (configuration not stated) [BIPERIDEN] | 1.79 | – | – | –
22 | CC(C)NCC(O)COc1ccc(COCCOC(C)C)cc1 (configuration not stated) [BISOPROLOL] | 1.62 | – | – | –
23 | CCCC1O[C@@H]2C[C@H]3[C@@H]4CCC5=CC(=O)C=C[C@]5(C)[C@H]4[C@@H](O)C[C@]3(C)[C@]2(C(=O)CO)O1 (some centres not stated) [BUDESONIDE] | 0.94 | – | – | –

Row | SMILES | logP(lung) [1] | logK(blood) [2] | logP(lung) [3] | logK(lung) [4]
24 | C=CC=C [BUTADIENE] | – | 0.09 | -0.41 | -0.32
25 | CCC(C)=O [BUTANONE] | – | 2.24 | -0.23 | 2.01
26 | CCCCC1(CC)C(=O)NC(=O)NC1=O [BUTETHAL] | 0.18 | – | – | –
27 | [C-]#[O+] [CARBON MONOXIDE] | – | -1.67 | -0.02 | -1.69
28 | Cc1nnc(SCC2=C(C(=O)O)N3C(=O)[C@@H](NC(=O)Cn4cnnn4)[C@H]3SC2)s1 [CEFAZOLIN] | -0.78 | – | – | –
29 | ClC(Cl)Cl [CHLOROFORM] | – | 1.15 | -0.03 | 1.12
30 | C=CC(=C)Cl [CHLOROPRENE] | – | – | – | 1.12
31 | COC(=O)[C@H]1[C@@H](OC(=O)c2ccccc2)C[C@@H]2CC[C@H]1N2C [COCAINE] | 1.06 | – | – | –
32 | CN1C(=O)CC[C@H]1c1cccnc1 [COTININE] | -0.18 | – | – | –
33 | C1CCCCC1 [CYCLOHEXANE] | – | 0.17 | 0.26 | 0.43
34 | C1CC1 [CYCLOPROPANE] | – | -0.21 | -0.3 | -0.51
35 | Cc1onc(-c2c(Cl)cccc2Cl)c1C(=O)N[C@@H]1C(=O)N2[C@@H]1SC(C)(C)[C@@H]2C(=O)O [DICLOXACILLIN] | -0.92 | – | – | –
36 | COc1cccc2c1C(=O)c1c(O)c3c(c(O)c1C2=O)C[C@@](O)(C(=O)CO)C[C@@H]3O[C@H]1C[C@H](N)[C@H](O)[C@H](C)O1 [DOXORUBICIN] | 0.53 | – | – | –
37 | CC1(C)[C@@H](O)CC[C@]2(C)[C@H]3C(=O)C=C4[C@@H]5C[C@@](C)(C(=O)O)CC[C@]5(C)CC[C@@]4(C)[C@]3(C)CC[C@@H]12 [ENOXOLONE] | -0.66 | – | – | –
38 | CC [ETHANE] | – | -1.02 | -0.26 | -1.28
39 | CCOc1ccccc1C(N)=O [ETHENZAMIDE] | -0.03 | – | – | –
40 | CCOCC [ETHER] | – | 1.11 | 0.03 | 1.14
41 | C#C [ETHYNE] | – | -0.06 | 0 | -0.06
42 | FC(F)(F)C(Cl)Br (configuration not stated) [HALOTHANE] | – | 0.57 | -0.11 | 0.46
43 | [He] [HELIUM] | – | -2 | 0.02 | -1.98
44 | CCCCCCC [HEPTANE] | – | 0.5 | -0.1 | 0.4
45 | CCCCCC [HEXANE] | – | 0.21 | -0.21 | 0
46 | CN1C(=O)NC(=O)C(C)(C2=CCCCC2)C1=O (configuration not stated) [HEXOBARBITAL] | 0.45 | – | – | –

Row | SMILES | logP(lung) [1] | logK(blood) [2] | logP(lung) [3] | logK(lung) [4]
47 | CCc1ccc(C(=O)C(C)CN2CCCC2)cc1 (configuration not stated) [INAPERISONE] | 1.52 | – | – | –
48 | O=C1Nc2ccc(Cl)cc2C(c2ccccc2Cl)=NC1O (configuration not stated) [LORAZEPAM] | 0.44 | – | – | –
49 | COC(=O)C(c1ccccc1)C1CCCCN1 (configuration not stated) [METHYLPHENIDATE] | 1.54 | – | – | –
50 | COn1cc(C(=O)O)c(=O)c2cc3c(cc21)OCO3 [MILOXACIN] | -0.29 | – | – | –
51 | CCn1cc(C(=O)O)c(=O)c2ccc(C)nc21 [NALIDIXIC ACID] | -0.48 | – | – | –
52 | CN1CCC[C@H]1c1cccnc1 [NICOTINE] | 0.32 | – | – | –
53 | CC1(C)S[C@@H]2[C@H](NC(=O)COc3ccccc3)C(=O)N2[C@H]1C(=O)O [PENICILLIN V] | -0.8 | – | – | –
54 | c1ccc(C2(N3CCCCC3)CCCCC2)cc1 [PHENCYCLIDINE] | 1.61 | – | – | –
55 | CCC1(c2ccccc2)C(=O)NC(=O)NC1=O [PHENOBARBITAL] | -0.08 | – | – | –
56 | O=C1NC(=O)C(c2ccccc2)(c2ccccc2)N1 [PHENYTOIN] | -0.1 | – | – | –
57 | CC(C)NCC(O)COc1cccc2[nH]ccc12 (configuration not stated) [PINDOLOL] | 1.01 | – | – | –
58 | c1cc2ccc3cccc4ccc(c1)c2c34 [PYRENE] | 0.35 | – | – | –
59 | Cc1nc(Nc2ccc(F)cc2)nc(N2CCc3ccccc3C2C)c1C.Cl (configuration not stated) [REVAPRAZAN HYDROCHLORIDE] | 1.34 | – | – | –
60 | O=C(O)c1ccccc1O [SALICYLIC ACID] | -0.72 | – | – | –
61 | O=c1[nH]c(=O)n(C2CCCO2)cc1F (configuration not stated) [TEGAFUR] | -0.59 | – | – | –
62 | CN1C(C(=O)Nc2ccccn2)=C(O)c2sccc2S1(=O)=O [TENOXICAM] | -0.49 | – | – | –
63 | CN(C/C=C/C#CC(C)(C)C)Cc1cccc2ccccc12 [TERBINAFINE] | 0.41 | – | – | –
64 | Cn1c(=O)c2[nH]cnc2n(C)c1=O.O [THEOPHYLLINE] | -0.15 | – | – | –
65 | CCCC(C)C1(CC)C(=O)NC(=S)NC1=O (configuration not stated) [THIOPENTAL] | 0.08 | – | – | –
66 | CSc1ccc2c(c1)N(CCC1CCCCN1C)c1ccccc1S2 (configuration not stated) [THIORIDAZINE] | 1.13 | – | – | –
67 | CC(C)(C)NC[C@H](O)COc1nsnc1N1CCOCC1 [TIMOLOL] | 1.43 | – | – | –
68 | Cc1cccc(OCC(O)CNC(C)C)c1 (configuration not stated) [TOLIPROLOL] | 0.89 | – | – | –
69 | CCCC(CCC)C(=O)O [VALPROIC ACID] | -0.38 | – | – | –
